According to patent US12298306B2, “Marker for identifying patients with gliobastoma who respond positively to the drug regorafenib” (ISTITUTO ONCOLOGICO VENETO IOV-IRCCS, priority 2018, dated 2025):

Assays:
glioblastoma = assay: REGOMA randomized, controlled, phase II clinical trial, survival by pACC Ser79 marker status; assay type: in vivo, patients
Protocol: Once all samples of the REGOMA trial which are available for the translational study (Table 1) have been stained, the biostatistics and clinical trial team of IOV (Mr. De Salvo—doctor) performed a statistical analysis to evaluate the possible prognostic or predictive meaning of the response of pACC^Ser79.
To evaluate the prognostic role of pACC^Ser79, an analysis was carried out according to the Cox model, considering pACC^Ser79 as an independent variable and dividing the patient samples into positive and negative (as reported above), and survival, being both free from disease progression and as a whole, as a dependent variable.
To evaluate the predictive role of pACC^Ser79, the variable of the treatment received by the patient was added to the Cox model (in particular, according to a randomized assignment, the patient received Regorafenib or Lomustine) in addition to the interaction factor of received treatment*status of the marker pACC^Ser79 (positive/negative).

[1] = system: glioblastoma at diagnosis; conditions: in association with standard treatment; cited from earlier work

CNC(=O)c1cc(Oc2ccc(NC(=O)Nc3ccc(Cl)c(C(F)(F)F)c3)c(F)c2)ccn1 [Regorafenib]
benefit from treatment in patients with neoplastic tissue positive to pACC Ser79 (glioblastoma; Cox model with treatment*marker interaction, comparator Lomustine): most benefited
survival after second-line treatment in patients whose tumor samples express pACC Ser79 (glioblastoma; pACC Ser79 positive tumor samples, second-line treatment, REGOMA): longer survival

bevacizumab
PFS [1]: improved
quality of life [1]: improved
survival (OS) [1]: no significant survival advantages
